According to patent US4581354A, “3-arylcarbonyl- and 3-cycloalkylcarbonyl-1-aminoalkyl-1H-indoles, compositions and use” (Sterling Drug Inc., priority 1985, dated 1986):
Like-named read-outs stand apart in the source and are kept apart here.

Tested on: acetylcholine-induced abdominal constriction
Test: animal or person
Format: in vivo, mice
Details: Mus musculus; for inhibition in vivo at 1000 mg/kg: 1000 mg./kg. oral; for ED50: read-out: Ach ED50; for inhibition in vivo at 300 mg/kg: 300 mg./kg. oral; for inhibition in vivo at 30 mg/kg: 30 mg./kg. oral; for inhibition in vivo at 550 mg/kg: 550 mg./kg. oral; for inhibition in vivo at 100 mg/kg: 100 mg./kg. oral
From the text: The test procedures used to determine the analgesic activities of the compounds have been described in detail in the prior art and are as follows: The acetylcholine-induced abdominal constriction test, which is a primary analgesic screening test designed to measure the ability of a test agent to suppress acetylcholine-induced abdominal constriction in mice, described by Collier et al., Brit. J. Pharmacol. Chemotherap. 32, 295 (1968); a modification of the anti-bradykinin test, which is also a primary analgesic screening procedure, described by Berkowitz et al., J. Pharmacol. Exptl. Therap. 177, 500-508 (1971), Blane et al., J. Pharm. Pharmacol. 19, 367-373 (1967), Botha et al., Eur. J. Pharmacol. 6, 312-321 (1969) and Deffenu et al., J. Pharm. Pharmacol. 18, 135 (1966); and the rat paw flexion test, described by Kuzuna et al., Chem. Pharm. Bull., 23, 1184-1191 (1975), Winter et al., J. Pharm. Exptl. Therap., 211, 678-685 (1979) and Capetola et al., J. Pharm. Exptl. Therap. 214, 16-23 (1980).
Unless noted otherwise, all data were obtained on oral administration and are expressed either as the ED50 or as the percent inhibition at a given dose level (thus 30/100 or 30% inhibition at […].)
In some instances, the compounds were retested two or more times, and ED50 values were calculated for each series of repeat tests. In such instances, each of the ED50 values so-obtained is given in a series of values, thus 6, 28, 30, 43 in the case of the species of Example 1AW in the acetylcholine-induced abdominal constriction test.

[1] = po, read-out: Ach percent inhibition

## Cc1c(C(=O)c2ccc(F)cc2)c2ccccc2n1CCN1CCOCC1 [Example 1Q, 3-(4-fluorobenzoyl)-2-methyl-1-[2-(4-morpholinyl)ethyl]-1H-indole]
po, 24 mg./kg. oral, read-out: Ach percent inhibition
  inhibition in vivo at 24 mg/kg: 7%
po, 79 mg./kg. oral, read-out: Ach percent inhibition
  inhibition in vivo at 79 mg/kg: 27%
po, 238 mg./kg. oral, read-out: Ach percent inhibition
  inhibition in vivo at 238 mg/kg: 60%
po, 435 mg./kg. oral, read-out: Ach percent inhibition
  inhibition in vivo at 435 mg/kg: 67%
po, 793 mg./kg. oral, read-out: Ach percent inhibition
  inhibition in vivo at 793 mg/kg: 60%
[1]
  inhibition in vivo at 1000 mg/kg: 67%

## Cc1c(C(=O)c2ccc3c(c2)OCO3)c2ccccc2n1CCN1CCOCC1 [Example 1R]
po
  ED50: 198 mg/kg

## Cc1c(C(=O)c2csc3ccccc23)c2ccccc2n1CCN1CCOCC1 [Example 1T]
iv
  ED50: 3.8 mg/kg
po
  ED50: 106 mg/kg

## COc1ccccc1C(=O)c1c(C)n(CCN2CCOCC2)c2ccccc12 [Example 1U, 2-methyl-3-(2-methoxybenzoyl)-1-[2-(4-morpholinyl)ethyl]-1H-indole]
po
  ED50: 155 mg/kg

## COc1ccc(C(=O)c2c(C)n(CCN3CCOCC3)c3ccccc23)cc1F [Example 1V]
[1]
  inhibition in vivo at 300 mg/kg: 20%

## Cc1c(C(=O)c2ccc3ccccc3c2)c2ccccc2n1CCN1CCOCC1 [Example 1W]
iv, 1 mg./kg. i.v., read-out: Ach percent inhibition
  inhibition in vivo at 1 mg/kg: 10%
iv, 1.73 mg./kg. i.v., read-out: Ach percent inhibition
  inhibition in vivo at 1.73 mg/kg: 0%
iv, 3 mg./kg. i.v., read-out: Ach percent inhibition
  inhibition in vivo at 3 mg/kg: 86%
[1]
  inhibition in vivo at 30 mg/kg: 0%
  inhibition in vivo at 300 mg/kg: 40%
  inhibition in vivo at 550 mg/kg: 47%

## COc1ccc(C(=O)c2cn(CCN3CCOCC3)c3ccc(C)cc23)cc1 [Example 1X]
[1]
  inhibition in vivo at 300 mg/kg: 7%

## Cc1c(C(=O)c2cccc(F)c2)c2ccccc2n1CCN1CCOCC1 [Example 1Y]
[1]
  inhibition in vivo at 100 mg/kg: 30%

## Cc1c(C(=O)c2ccccc2F)c2ccccc2n1CCN1CCOCC1 [Example 1Z, 3-(2-fluorobenzoyl)-2-methyl-1-[2-(4-morpholinyl)-ethyl]-1H-indole]
po
  ED50: 68 mg/kg

## Cc1c(C(=O)c2ccc(S(C)(=O)=O)cc2)c2ccccc2n1CCN1CCOCC1 [Example 2-O]
[1]
  inhibition in vivo at 100 mg/kg: 20%

## Cc1ccc(C(=O)c2cn(C(C)CN3CCOCC3)c3ccccc23)cc1 (centres unmarked) [Example 2A, 3-(4-methylbenzoyl)-1-[1-methyl-2-(4-morpholinyl)ethyl]-1H-indole]
[1]
  inhibition in vivo at 30 mg/kg: 7%
  inhibition in vivo at 300 mg/kg: 60%
  inhibition in vivo at 550 mg/kg: 73%
  inhibition in vivo at 1000 mg/kg: 67%

## COc1ccc(C(=O)c2c(Cl)n(CCN3CCOCC3)c3ccccc23)cc1 [Example 2AB]
po
  ED50: 91 mg/kg

## CCCc1ccc(C(=O)c2c(C)n(CCN3CCOCC3)c3ccccc23)cc1 [Example 2AC]
[1]
  inhibition in vivo at 100 mg/kg: 30%

## Cc1ccccc1C(=O)c1c(C)n(CCCN2CCOCC2)c2ccc(F)cc12 [Example 2AD]
[1]
  inhibition in vivo at 100 mg/kg: 10%

## Cc1c(C(=O)c2ccc(F)cc2)c2cc(F)ccc2n1CCCN1CCOCC1 [Example 2AE]
[1]
  inhibition in vivo at 100 mg/kg: 20%

## Cc1c(C(=O)c2ccoc2)c2cc(F)ccc2n1CCCN1CCOCC1 [Example 2AF]
[1]
  inhibition in vivo at 100 mg/kg: 30%

## Cc1c(C(=O)C=Cc2ccccc2)c2cc(F)ccc2n1CCCN1CCOCC1 [Example 2AG]
po
  ED50: 143 mg/kg

## Cc1c(C(=O)c2ccc(F)cc2F)c2cc(F)ccc2n1CCN1CCOCC1 [Example 2AH]
[1]
  inhibition in vivo at 100 mg/kg: 20%

## Cc1c(C(=O)c2cccc3ccccc23)c2ccccc2n1C(C)CN1CCOCC1 (centres unmarked) [Example 2AK]
iv, 0.3 mg./kg. i.v., read-out: Ach percent inhibition
  inhibition in vivo at 0.3 mg/kg: 30%

## O=C(c1cccc2ccccc12)c1cn(CCN2CCOCC2)c2ccccc12 [Example 2AL]
iv, 0.1 mg./kg. i.v., read-out: Ach percent inhibition
  inhibition in vivo at 0.1 mg/kg: 20%

## Cc1c(C(=O)c2ccc3occc3c2)c2ccccc2n1CCN1CCOCC1 [Example 2AM]
[1]
  inhibition in vivo at 100 mg/kg: 80%

## Cc1c(C(=O)c2ccc(F)cc2F)c2ccccc2n1CCN1CCOCC1 [Example 2AN]
po
  ED50: 90 mg/kg

## Cc1c(C(=O)c2ccc(F)cc2F)c2cc(F)ccc2n1CCCN1CCOCC1 [Example 2AO]
[1]
  inhibition in vivo at 100 mg/kg: 40%

## COc1ccc(C(=O)c2c(C)n(CCN3CCOCC3)c3ccccc23)c(F)c1 [Example 2AP]
po
  ED50: 27 mg/kg

## Cc1c(C(=O)c2ccc(Br)cc2)c2cc(F)ccc2n1CCCN1CCOCC1 [Example 2AR]
[1]
  inhibition in vivo at 100 mg/kg: 50%

## Cc1cccc(C(=O)c2c(C)n(CCN3CCOCC3)c3ccccc23)c1C [Example 2AT]
[1]
  inhibition in vivo at 100 mg/kg: 20%

## Cc1c(C(=O)c2cc(Cl)cc(Cl)c2)c2ccccc2n1CCN1CCOCC1 [Example 2AU]
[1]
  inhibition in vivo at 100 mg/kg: 30%

## Cc1cc(C)cc(C(=O)c2c(C)n(CCN3CCOCC3)c3ccccc23)c1 [Example 2AV]
[1]
  inhibition in vivo at 100 mg/kg: 10%

## Cc1cccc(C(=O)c2c(C)n(CCN3CCOCC3)c3ccccc23)c1 [Example 2AW]
[1]
  inhibition in vivo at 100 mg/kg: 20%

## Cc1c(C(=O)c2cccc(Cl)c2)c2ccccc2n1CCN1CCOCC1 [Example 2AX]
[1]
  inhibition in vivo at 100 mg/kg: 0%

## Cc1c(C(=O)c2ccccc2Cl)c2ccccc2n1C(C)CN1CCOCC1 (centres unmarked) [Example 2AZ]
po
  ED50: 26 mg/kg

## Cc1c(C(=O)c2ccccc2F)c2cc(F)ccc2n1CCCN1CCOCC1 [Example 2BB, 5-fluoro-3-(2-fluorobenzoyl)-2-methyl-1-[3-(4-morpholinyl)propyl]-1H-indole]
[1]
  inhibition in vivo at 100 mg/kg: 40%

## Cc1c(C(=O)c2ccoc2)c2ccccc2n1CCN1CCOCC1 [Example 2BC]
[1]
  inhibition in vivo at 100 mg/kg: 10%

## Cc1c(C(=O)c2ccccc2F)c2cc(F)ccc2n1C(C)CN1CCOCC1 (centres unmarked) [Example 2BD]
po
  ED50: 15 mg/kg

## Cc1c(C(=O)c2ccc(Br)cc2)c2ccccc2n1CCN1CCOCC1 [Example 2BE]
[1]
  inhibition in vivo at 100 mg/kg: 30%

## Cc1c(C(=O)c2ccc3[nH]cnc3c2)c2ccccc2n1CCN1CCOCC1 [Example 2BF]
[1]
  inhibition in vivo at 100 mg/kg: 30%

## Cc1ccc(C(=O)c2c(C)n(C(C)CN3CCOCC3)c3ccccc23)cc1 (centres unmarked) [Example 2B]
[1]
  inhibition in vivo at 300 mg/kg: 47%
  inhibition in vivo at 550 mg/kg: 33%

## CC(CN1CCOCC1)n1cc(C(=O)c2ccc(F)cc2)c2ccccc21 (centres unmarked) [Example 2D]
[1]
  inhibition in vivo at 100 mg/kg: 20%
  inhibition in vivo at 300 mg/kg: 40%
  inhibition in vivo at 1000 mg/kg: 67%

## CC(CN1CCOCC1)n1cc(C(=O)c2ccccc2F)c2ccccc21 (centres unmarked) [Example 2E]
po
  ED50: 33 mg/kg

## CC(CN1CCOCC1)n1cc(C(=O)c2cccn2C)c2ccccc21 (centres unmarked) [Example 2F]
[1]
  inhibition in vivo at 30 mg/kg: 20%
  inhibition in vivo at 100 mg/kg: 40%
  inhibition in vivo at 300 mg/kg: 33%

## Cc1c(C(=O)c2ccc(F)cc2)c2ccccc2n1C(C)CN1CCOCC1 (centres unmarked) [Example 2G]
po
  ED50: 42 mg/kg

## Cc1c(C(=O)c2cccn2C)c2ccccc2n1C(C)CN1CCOCC1 (centres unmarked) [Example 2H]
po
  ED50: 49 mg/kg

## Cc1cccc2c(C(=O)c3ccccc3)cn(C(C)CN3CCOCC3)c12 (centres unmarked) [Example 2J]
po
  ED50: 60 mg/kg

## Cc1c(C(=O)c2ccccc2C#N)c2ccccc2n1CCN1CCOCC1 [Example 2L]
[1]
  inhibition in vivo at 100 mg/kg: 10%

## Cc1c(C(=O)c2cccc(C#N)c2)c2ccccc2n1CCN1CCOCC1 [Example 2M]
[1]
  inhibition in vivo at 100 mg/kg: 20%

## Cc1c(C(=O)c2ccn(C)c2)c2ccccc2n1CCN1CCOCC1 [Example 2N]
[1]
  inhibition in vivo at 100 mg/kg: 20%

## Cc1c(C(=O)c2ccsc2)c2ccccc2n1CCN1CCOCC1 [Example 2P]
[1]
  inhibition in vivo at 100 mg/kg: 30%

## Cc1c(C(=O)C2CCCCC2)c2ccccc2n1CCN1CCOCC1 [Example 2Q]
[1]
  inhibition in vivo at 100 mg/kg: 20%

## Cc1c(C(=O)c2ccc(C(C)(C)C)cc2)c2ccccc2n1CCN1CCOCC1 [Example 2R]
[1]
  inhibition in vivo at 100 mg/kg: 10%

## Cc1c(C(=O)c2cc3ccccc3s2)c2ccccc2n1CCN1CCOCC1 [Example 2S]
[1]
  inhibition in vivo at 100 mg/kg: 0%

## Cc1c(C(=O)c2cccn2C)c2ccccc2n1CCN1CCOCC1 [Example 2T]
[1]
  inhibition in vivo at 100 mg/kg: 30%

## Cc1ccccc1C(=O)c1c(C)n(CCN2CCOCC2)c2ccccc12 [Example 2U]
po
  ED50: 88 mg/kg
